Data taken from PubChem BioAssay AID2060505 (Molecular Pharmacology Branch, DTP, NCI, 2025).
Where “and” joins values, the source holds several entries; their conditions need not be identical. Identical values can stand only once.

System: 633275-114-R-J1-PDC complex spheroids, viability
Experiment: Anticancer human tumor 633275-114-R-J1-PDC patient-derived endometrial adenocarcinoma cell line growth inhibition [GQUAD]
Details: for viability, T/C: stronger effect = lower value
Description: DNA G-quadruplex Stabilizer Agents in Combinations in Complex Spheroids
A high-throughput screen of multi-cell type tumor spheroids was designed to identify active combinations of DNA G-quadruplex stabilizer agents and targeted small molecules. Complex spheroids include a stromal component modeled by human endothelial cells (HUVEC) and fibroblasts modeled by human mesenchymal stem cells (MSCs). The concentration ranges selected for each drug and investigational agent were based upon clinically achievable concentrations if the clinical Cmax of the agent was known.
Compounds. The drugs and investigational agents: pidnarulex (CX-5461; NSC782164), APTO-253 (NSC789042), BRACO-19 (NSC847499), peposertib (NSC802822), ceralasertib (NSC780249), elimusertib (NSC800525), camonsertib (NSC841442), AZD-1390 (NSC803789), olaparib (NSC753686), talazoparib (NSC767125), ART-558 (NSC835418), sotorasib (NSC818433), MRTX-1133 (NSC836407), SN-38 (NSC673596), topotecan (NSC609699), etoposide (NSC141540), doxorubicin (NSC123127), gemcitabine (NSC613327), 5-fluorouracil (NSC19893), paclitaxel (NSC125973), vemurafenib (NSC761431), panobinostat (NSC761190), R-306465 (JNJ-16241199; NSC773264), adavosertib (NSC754352), TP-3654 (NSC805149), carboplatin (NSC241240), KSQ-4279 (NSC840948), and staurosporine (NSC755774) were obtained from the National Cancer Institute (NCI) Developmental Therapeutics Program Chemical Repository (34). The FDA-approved anticancer drug set is available from the NCI Developmental Therapeutics Program. […] The stock solutions were prepared in dimethyl sulfoxide (DMSO, Sigma-Aldrich, St. Louis, MO, cat. D2650) at 800-fold the tested concentration and stored at -70 degrees C prior to their use. All drugs and investigational agents were tested over a range starting from a high concentration at or near the clinical Cmax and decreasing in half-log increments. If the clinical Cmax for an agent had not been determined, the highest concentration tested was 10 microM.
2.3 Cell Culture. All cells were maintained in an incubator at 37 degrees C and 5% CO2 with 95% humidity. The PDC lines were cultured according to standard operating procedures established by the NCI PDMR. All PDCs were thawed and cultured in Matrigel-coated flasks prepared with a working solution of 1X Ham's F-12 nutrient mix, without supplementation (Invitrogen, cat. 11765054), 100 U/mL penicillin-streptomycin (Invitrogen, cat. 15140122), and 2.5% Matrigel (Corning Inc., cat. 354248) for the first three passages. The 857933-349-R-J2-PDC line was cultured in 6C/Colon 1B media, which includes advanced DMEM/F-12 (Thermo Fisher Scientific, cat. 12634028), 10 mM HEPES (Thermo Fisher Scientific, cat. 15630080), 1X GlutaMAX supplement (Thermo Fisher Scientific, cat. 35050061), 0.1 mg/mL primocin (InvivoGen, cat. ant-pm-2), 10% defined fetal bovine serum, heat inactivated (HyClone Laboratories Inc., cat. SH30070.03HI), 50% L-WRN conditioned media (ATCC, cat. CRL-3276), 1.25 mM N-Acetyl-L-cysteine (Sigma-Aldrich, cat. A9165), 10 mM nicotinamide (Sigma-Aldrich, cat. N0636), 1X B-27 supplement (Thermo Fisher Scientific, cat. 17504044), 1X N-2 supplement (Thermo Fisher Scientific, cat. 17502048), 10 microM Y-27632 dihydrochloride (Tocris Bioscience, cat. 1254), and 50 ng/mL human EGF recombinant protein (Thermo Fisher Scientific, cat. PHG0311). The 485176-168-R4-J1-PDC line was cultured in Panc media, which includes all 6C/Colon 1B media components plus 100 ng/mL human FGF-10 (Thermo Fisher Scientific, cat. 100-26), 500 nM SB-431542 (Selleckchem, cat. S1067), and gastrin (Tocris, cat. 3006).
[…]

[1] = compound alone, run of 03/26/2024
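Also: spheroids exposed to the agents for seven days.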
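For viability, T/C in this document: percent of DMSO vehicle control viability which is 100%.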

`Cc1[nH]c2ccc(F)cc2c1-c1nc2c3cccnc3c3ncccc3c2[nH]1` was tested, and the viability, T/C (compound 0.0316 µM) was 104% [middle of 12 runs], the viability, T/C (compound 0.1 µM) was 102% [middle of 12 runs] and the viability, T/C (compound 0.316 µM) was 99.1% [middle of 12 runs]. The viability, T/C (compound 1 µM) was 92.6% [middle of 12 runs], the viability, T/C (compound 3.16 µM) was 73% [middle of 12 runs] and the viability, T/C (compound 10 µM) was 72.2% [middle of 12 runs]. The IC50 (compound alone, run of 03/18/2024) was > 10000 nM and the IC50 [1] was > 10000 nM.
For `CN(C)c1ccc(Nc2c3ccc(NC(=O)CCN4CCCC4)cc3nc3cc(NC(=O)CCN4CCCC4)ccc23)cc1`, the viability, T/C (compound 0.0316 µM) was 102% [middle of 12 runs], the viability, T/C (compound 0.1 µM) was 101% [middle of 12 runs] and the viability, T/C (compound 0.316 µM) was 103% [middle of 12 runs]. For the same molecule, the viability, T/C (compound 1 µM) was 94.3% [middle of 12 runs], the viability, T/C (compound 3.16 µM) was 81.8% [middle of 12 runs] and the viability, T/C (compound 10 µM) was 36.6% [middle of 12 runs]. For the same molecule, the IC50 [1] was 7.24 µM [middle of 12 runs].
Work on `COc1cc(C2c3cc4c(cc3C(OC3OC5COC(C)OC5C(O)C3O)C3COC(=O)C23)OCO4)cc(OC)c1O` (stereo unspecified) + Cc1[nH]c2ccc(F)cc2c1-c1nc2c3cccnc3c3ncccc3c2[nH]1 yielded an IC50 (curve of first compound, second compound 0.0316 µM) of 446 nM, an IC50 (curve of first compound, second compound 0.1 µM) of 410 nM and an IC50 (curve of first compound, second compound 0.316 µM) of 429 nM. For the same molecule, the IC50 (curve of first compound, second compound 1 µM) was 358 nM, the IC50 (curve of first compound, second compound 3.16 µM) was 158 nM and the IC50 (curve of first compound, second compound 10 µM) was 169 nM. It also gave a viability, T/C (second compound 0.0316 µM, first compound 0.0316 µM) of 88.3%, a viability, T/C (second compound 0.0316 µM, first compound 0.1 µM) of 67.3% and a viability, T/C (second compound 0.0316 µM, first compound 0.316 µM) of 52.6%. It also gave a viability, T/C (second compound 0.0316 µM, first compound 1 µM) of 41.9%, a viability, T/C (second compound 0.0316 µM, first compound 3.16 µM) of 40% and a viability, T/C (second compound 0.0316 µM, first compound 10 µM) of 30.4%. For the same molecule, the viability, T/C (second compound 0.1 µM, first compound 0.0316 µM) was 87.8%, the viability, T/C (second compound 0.1 µM, first compound 0.1 µM) was 72.5% and the viability, T/C (second compound 0.1 µM, first compound 0.316 µM) was 50.1%. For the same molecule, the viability, T/C (second compound 0.1 µM, first compound 1 µM) was 41.7%, the viability, T/C (second compound 0.1 µM, first compound 3.16 µM) was 39.2% and the viability, T/C (second compound 0.1 µM, first compound 10 µM) was 30.7%. The viability, T/C (second compound 0.316 µM, first compound 0.0316 µM) was 85.5%, the viability, T/C (second compound 0.316 µM, first compound 0.1 µM) was 69.5% and the viability, T/C (second compound 0.316 µM, first compound 0.316 µM) was 51%. The viability, T/C (second compound 0.316 µM, first compound 1 µM) was 42.2%, the viability, T/C (second compound 0.316 µM, first compound 3.16 µM) was 38.3% and the viability, T/C (second compound 0.316 µM, first compound 10 µM) was 31.3%. For the same molecule, the viability, T/C (second compound 1 µM, first compound 0.0316 µM) was 86.5%, the viability, T/C (second compound 1 µM, first compound 0.1 µM) was 65.2% and the viability, T/C (second compound 1 µM, first compound 0.316 µM) was 51.6%. For the same molecule, the viability, T/C (second compound 1 µM, first compound 1 µM) was 40.8%, the viability, T/C (second compound 1 µM, first compound 3.16 µM) was 36.1% and the viability, T/C (second compound 1 µM, first compound 10 µM) was 30.8%. It also gave a viability, T/C (second compound 3.16 µM, first compound 0.0316 µM) of 64.2%, a viability, T/C (second compound 3.16 µM, first compound 0.1 µM) of 56.1% and a viability, T/C (second compound 3.16 µM, first compound 0.316 µM) of 41.7%. For the same molecule, the viability, T/C (second compound 3.16 µM, first compound 1 µM) was 36.6%, the viability, T/C (second compound 3.16 µM, first compound 3.16 µM) was 37.3% and the viability, T/C (second compound 3.16 µM, first compound 10 µM) was 27.8%. For the same molecule, the viability, T/C (second compound 10 µM, first compound 0.0316 µM) was 65.5%, the viability, T/C (second compound 10 µM, first compound 0.1 µM) was 56.4% and the viability, T/C (second compound 10 µM, first compound 0.316 µM) was 41.8%. It also gave a viability, T/C (second compound 10 µM, first compound 1 µM) of 37.4%, a viability, T/C (second compound 10 µM, first compound 3.16 µM) of 33.4% and a viability, T/C (second compound 10 µM, first compound 10 µM) of 28.4%.
`C=CC(=O)N1CCN(c2nc(=O)n(-c3c(C)ccnc3C(C)C)c3nc(-c4c(O)cccc4F)c(F)cc23)C(C)C1` (stereo unspecified) was tested, and the viability, T/C (compound 0.0316 µM) was 98.6% and 102% and 105%, the viability, T/C (compound 0.1 µM) was 101% and 93.9% and 95.3% and the viability, T/C (compound 0.316 µM) was 109% and 115% and 99.2%. The viability, T/C (compound 1 µM) was 105% and 90.3% and 92%, the viability, T/C (compound 3.16 µM) was 111% and 93.5% and 105% and the viability, T/C (compound 10 µM) was 85% and 77% and 90.2%. For the same molecule, the IC50 (curve of compound) was > 10000 nM.
With `CC[C@@]1(O)C(=O)OCc2c1cc1n(c2=O)Cc2cc3c(CN(C)C)c(O)ccc3nc2-1` the viability, T/C (compound 0.000999 µM) was 95.5% and 106% and 99.4%, the viability, T/C (compound 0.00316 µM) was 97.2% and 89% and 87.9% and the viability, T/C (compound 0.00999 µM) was 86% and 86.5% and 92%. For the same molecule, the viability, T/C (compound 0.0316 µM) was 68.2% and 70.6% and 66.2%, the viability, T/C (compound 0.0999 µM) was 41.4% and 40.2% and 45% and the viability, T/C (compound 0.316 µM) was 37.1% and 38.9% and 35.8%. For the same molecule, the IC50 (curve of compound) was 71.7 nM and 79.8 nM and 73.9 nM.
